Our source for the IC50 and inhibition values is patent US10940139B2, “Compounds that interact with the Ras superfamily for the treatment of cancers, inflammatory diseases, rasopathies, and fibrotic disease” (Shy Therapeutics LLC, priority 2017, dated 2021).

The test system of one test is MIA-PACA2 pancreatic cancer cell lines. The experiment in a line: Cell proliferation assay (CellTiter 96 AQueous One). The test is classed as cell-based. As to conditions: Homo sapiens, MIA PaCa-2; MIA-PACA2, same assay as the % inhibition (standard conditions).
In general, IC50 refers to the concentration at which inhibition is half-maximal. Low values mean greater potency, high ones weaker potency. `Oc1nc(-c2ccccn2)nc2c(Br)csc12` [drawing 1562] registered a half-inhibitory concentration (IC50) of 501 to 1000 nM.

For `Oc1nc(-c2ccccn2)nc2c(-c3cccc4c3OCO4)csc12` [drawing 1725], the 50% inhibitory concentration (IC50) is 100 to 500 nM.

The same test, now with this note: Homo sapiens, MIA PaCa-2; at 30 μM, MIA-PACA2.
As a reminder, the inhibition is the change of the read-out against control, counted positive when it falls. A high value points to strong suppression. For `Nc1nc(-c2ccccn2)nc2c(Br)csc12` [drawing 1768], the inhibition at 30 µM fell in the range of 25 to 50%.

Take `Cc1ccc(-c2ccc(Oc3ccc(C(F)(F)F)cn3)c(C)c2)cc1` [drawing 1526]: the inhibition at 30 µM lay in the range of 76 to 100%.

`Cc1sc2nc(N)nc(O)c2c1C` [drawing 1630] displayed an inhibition at 30 µM of 1 to 25%.

Take `COc1ccc(CCC(=O)Nc2nnc(-c3ccccn3)[nH]2)cc1F` [drawing 1385]: the inhibition at 30 µM fell in the range of 1 to 25%.

In turn, `COc1ccccc1C1CC1C(=O)Nc1nnc(-c2ccccn2)[nH]1` (stereo not drawn) [drawing 1447] yielded an inhibition at 30 µM of 25 to 50%.

With `O=C(CCCc1cccnc1)N1CCCc2c(O)nc(-c3ccccn3)nc21` [drawing 1556], the inhibition at 30 µM lay within 76 to 100%.

With `O=S1(=O)CCN(Cc2cccc(-c3csc4c(O)nc(-c5ccccn5)nc34)c2)CC1` [drawing 1740], the inhibition at 30 µM was 76 to 100%.

The molecule `O=C(Nc1nnc(-c2ccccn2)[nH]1)C1CCn2c(cnc2-c2ccccc2)C1` (stereo not drawn) [drawing 1389] showed an inhibition at 30 µM of 1 to 25%.

`COC(=O)c1cc(NCc2nc(CC(C)C)no2)ccc1Cl` [drawing 1518] returned an inhibition at 30 µM of 76 to 100%.

`Cc1ccc(CN(Cc2ccco2)C(=O)c2oc3ccccc3c2C)cc1` [drawing 1520] showed an inhibition at 30 µM of 1 to 25%.

As for `Cc1cccc(CN(Cc2ccccn2)Cc2nccn2C)c1` [drawing 1519], the inhibition at 30 µM was 76 to 100%.

`Cc1cc2nc(-c3ccccn3)nc(N)c2s1` [drawing 1712] had an inhibition at 30 µM of 76 to 100%.

With `O=C(c1csc2c(O)nc(-c3ccccn3)nc12)N1CCC(N2CCOCC2)CC1` [drawing 1567], the inhibition at 30 µM fell in the range of 1 to 25%.

`c1ccc(-c2csc3nc(-c4ccccn4)nc(N4CCN(Cc5cccnc5)CC4)c23)cc1` [drawing 1602] displayed an inhibition at 30 µM of 76 to 100%.

Consider `O=C(Nc1nnc(-c2ccccn2)[nH]1)c1ccc(Oc2cccnc2)cc1` [drawing 1460], for which the inhibition at 30 µM is 76 to 100%.

Molecule `O=C(c1cc2nc(-c3ccccn3)nc(O)c2s1)N1CCOC(c2ccccc2)C1` (stereo not drawn) [drawing 1718] displayed an inhibition at 30 µM of 76 to 100%.

For the molecule `CC(C)(C(=O)Nc1ccnc(-c2ccccn2)n1)c1ccc(C#N)cc1` [drawing 1645], the inhibition at 30 µM lay in the range of 76 to 100%.

For the molecule `O=C(CCc1cncnc1)Nc1nc(-c2ccccn2)nc2sccc12` [drawing 1767], the inhibition at 30 µM lay in the range of 76 to 100%.

Molecule `Cc1nc(-c2ccccn2)sc1C(=O)Nc1nnc(-c2ccccn2)[nH]1` [drawing 1444] showed an inhibition at 30 µM of 76 to 100%.

The molecule `Oc1nc(-c2ccccn2)nc2c(-c3ccc(OC4CCCCC4)cc3)csc12` [drawing 1763] showed an inhibition at 30 µM of 76 to 100%.

`CC(C)COC(C)C(=O)Nc1nnc(-c2ccccn2)[nH]1` (stereo not drawn) [drawing 1418] displayed an inhibition at 30 µM of 76 to 100%.

Turning to `CCOCCC1CCN(C(=O)c2csc3c(O)nc(-c4ccccn4)nc23)CC1` [drawing 1565], the inhibition at 30 µM lay in the range of 76 to 100%.

In turn, `O=C(NCCc1nnn[nH]1)c1csc2nc(-c3ccccn3)nc(N3CCOCC3)c12` [drawing 1679] displayed an inhibition at 30 µM of 51 to 75%.

On to `Cc1cnc(-c2ccccn2)nc1NC(=O)Cc1ccc2cnccc2c1` [drawing 1732], for which the inhibition at 30 µM fell in the range of 76 to 100%.

`Oc1nc(-c2ccccn2)nc2c(Br)csc12` [drawing 1562] returned an inhibition at 30 µM of 76 to 100%.

As for `O=C(Cc1cccs1)Nc1nnc(-c2ccccn2)[nH]1` [drawing 1409], the inhibition at 30 µM was in the range of 1 to 25%.

The molecule `O=C(Nc1nnc(-c2ccccn2)[nH]1)c1ccc2ccccc2n1` [drawing 1401] displayed an inhibition at 30 µM of 25 to 50%.

In turn, `Oc1nc(-c2ccccn2)nc2c(-c3ccc(OC4CCCC4)cc3)csc12` [drawing 1739] gave an inhibition at 30 µM of 76 to 100%.

In turn, `O=S(=O)(c1ccccc1)N1CCCc2c(O)nc(-c3ccccn3)nc21` [drawing 1553] yielded an inhibition at 30 µM of 25 to 50%.

For `COCCCCNC(=O)c1csc2nc(-c3ccccn3)nc(N3CCOCC3)c12` [drawing 1682], the inhibition at 30 µM lay in the range of 76 to 100%.

As to `COc1nc(-c2ccccn2)nc2c(C3CCCC3)csc12` [drawing 1793], the inhibition at 30 µM was 76 to 100%.

Consider `COCCCC1CCN(C(=O)c2csc3c(O)nc(-c4ccccn4)nc23)CC1` [drawing 1566], for which the inhibition at 30 µM lay in the range of 76 to 100%.

`CC(C)CNC(=O)CN1CCN(c2nc(-c3ccccn3)nc3scc(-c4ccccc4)c23)CC1` [drawing 1614] gave an inhibition at 30 µM of 76 to 100%.

`Nc1nc(O)c2scc(C(=O)NCCc3cccnc3)c2n1` [drawing 1560]: the inhibition at 30 µM lay within 1 to 25%.

Molecule `CCn1nnc2cc(C(=O)Nc3nnc(-c4ccccn4)[nH]3)ccc21` [drawing 1420] displayed an inhibition at 30 µM of 51 to 75%.

The molecule `Cc1nc(-c2ccccn2)nc(O)c1CCC(=O)NCCc1cccs1` [drawing 1502] had an inhibition at 30 µM of 76 to 100%.

As to `CC(Oc1ccc(C#N)cc1)C(=O)Nc1nnc(-c2ccccn2)[nH]1` (stereo not drawn) [drawing 1437], the inhibition at 30 µM lay within 76 to 100%.

`CC(c1ccccc1)N1CCN(C(=O)c2csc3c(O)nc(-c4ccccn4)nc23)CC1` (stereo not drawn) [drawing 1697] returned an inhibition at 30 µM of 76 to 100%.

In turn, `Oc1nc(-c2ccccn2)nc2c(-c3ccc(OC4CCOCC4)cc3)csc12` [drawing 1743] came in with an inhibition at 30 µM of 76 to 100%.

As to `O=C(NCCc1cnc(O)nc1)c1csc2nc(-c3ccccn3)nc(N3CCS(=O)(=O)CC3)c12` [drawing 1730], the inhibition at 30 µM fell in the range of 1 to 25%.

As for `Cc1nc(-c2ccccn2)nc(O)c1CCC(=O)Nc1ccc(C(C)C)cc1` [drawing 1505], the inhibition at 30 µM was in the range of 76 to 100%.

`O=C(CCNC(=O)c1ccco1)Nc1nnc(-c2ccccn2)[nH]1` [drawing 1417] came in with an inhibition at 30 µM of 76 to 100%.

For the molecule `CC(Oc1ccccc1C#N)C(=O)Nc1nnc(-c2ccccn2)[nH]1` (stereo not drawn) [drawing 1423], the inhibition at 30 µM fell in the range of 76 to 100%.

As for `COc1cnc(C2CCCN2)nc1O` (stereo not drawn) [drawing 1792], the inhibition at 30 µM is 51 to 75%.

Take `N#Cc1ccc2c(c1)CCCC2C(=O)Nc1ccnc(-c2ccccn2)n1` (stereo not drawn) [drawing 1731]: the inhibition at 30 µM lay within 76 to 100%.

`N#Cc1ccc(CCNC(=O)c2csc3nc(-c4ccccn4)nc(N4CCOCC4)c23)cc1` [drawing 1644] yielded an inhibition at 30 µM of 25 to 50%.

For `Oc1nc(-c2ccccn2)nc2c(-c3ccsc3)csc12` [drawing 1751], the inhibition at 30 µM was in the range of 76 to 100%.

As for `c1ccc(-c2csc3nc(-c4ccccn4)nc(N4CCOCC4)c23)cc1` [drawing 1618], the inhibition at 30 µM lay within 76 to 100%.

As for `Oc1nc(-c2ccccn2)nc2c1ncn2-c1ccccc1` [drawing 1583], the inhibition at 30 µM lay within 25 to 50%.

Take `O=C(Nc1nnc(-c2ccccn2)[nH]1)C1CC(=O)N(Cc2cccc(C(F)(F)F)c2)C1` (stereo not drawn) [drawing 1458]: the inhibition at 30 µM lay in the range of 76 to 100%.

Regarding `CC(OCc1ccccc1)C(=O)Nc1nnc(-c2ccccn2)[nH]1` (stereo not drawn) [drawing 1428], the inhibition at 30 µM fell in the range of 51 to 75%.

Take `Cc1c(C(=O)N(C)C)sc2[nH]c(-c3ccccn3)nc(=O)c12` [drawing 1497]: the inhibition at 30 µM lay within 51 to 75%.

`NC(=O)C1(CNc2nc(-c3ccccn3)nc3c2CCC3)CCCC1` [drawing 1514] yielded an inhibition at 30 µM of 76 to 100%.

For the molecule `Cc1nc2nc(C(F)(F)F)nn2c(C)c1CC(=O)Nc1nnc(-c2ccccn2)[nH]1` [drawing 1445], the inhibition at 30 µM lay in the range of 51 to 75%.

Turning to `Oc1nc(-c2ccccn2)nc2c(-c3ccccc3OC3CCCCC3)csc12` [drawing 1742], the inhibition at 30 µM was in the range of 76 to 100%.

`O=C1CN(c2nc(-c3ccccn3)nc3scc(-c4ccccc4)c23)CCN1` [drawing 1593] gave an inhibition at 30 µM of 1 to 25%.

In the case of `Cc1[nH]nc(CCCN(C)c2nc(-c3ccccn3)nc3sc(-c4ccccc4)cc23)c1C#N`, the inhibition at 30 µM fell in the range of 76 to 100%.

`O=C(NCCc1cncnc1)c1csc2nc(-c3ccccn3)nc(N3CCOCC3)c12` [drawing 1677] showed an inhibition at 30 µM of 76 to 100%.

Molecule `O=C(c1csc2c(O)nc(-c3ccccn3)nc12)N1CCN(Cc2ccc(O)cc2)CC1` [drawing 1657] registered an inhibition at 30 µM of 1 to 25%.

`Cc1cnccc1-c1csc2c(O)nc(-c3ccccn3)nc12` [drawing 1764] displayed an inhibition at 30 µM of 76 to 100%.

Regarding `Oc1nc(-c2ccccn2)nc2c(-c3cnc4ccccc4c3)csc12` [drawing 1784], the inhibition at 30 µM fell in the range of 76 to 100%.

`Cc1nc(-c2ccccn2)nc(O)c1CCC(=O)Nc1cc(F)ccc1F` [drawing 1503] gave an inhibition at 30 µM of 76 to 100%.

Molecule `O=C(c1csc2c(O)nc(-c3ccccn3)nc12)N1CCOC(c2cccc(Cl)c2)C1` (stereo not drawn) [drawing 1663] yielded an inhibition at 30 µM of 76 to 100%.

As to `CC(=O)C1CCN(c2nc(-c3ccccn3)nc3scc(-c4ccccc4)c23)CC1`, the inhibition at 30 µM fell in the range of 76 to 100%.

For `COc1cccc(-c2csc3c(O)nc(-c4ccccn4)nc23)c1` [drawing 1748], the inhibition at 30 µM is 76 to 100%.

The molecule `COCCN(CCOC)c1nc(-c2ccccn2)nc2scc(C(=O)NCCc3ccc(OC)nc3)c12` [drawing 1685] returned an inhibition at 30 µM of 76 to 100%.

In the case of `COc1ccc(OCc2nc(CNCCc3nnc4n3CCC4)cs2)cc1` [drawing 1472], the inhibition at 30 µM fell in the range of 76 to 100%.

For the molecule `O=C(c1csc2c(O)nc(-c3ccccn3)nc12)N1CCN(c2ccncc2)CC1` [drawing 1570], the inhibition at 30 µM was 76 to 100%.

In turn, `COc1cc(N2CCN(C(=O)c3csc4c(O)nc(-c5ccccn5)nc34)CC2)cc(OC)c1OC` [drawing 1651] came in with an inhibition at 30 µM of 51 to 75%.

Molecule `O=C(COCc1ccnc(O)c1)Nc1nc(-c2ccccn2)nc2sccc12` [drawing 1733] yielded an inhibition at 30 µM of 51 to 75%.

The molecule `Oc1nc(-c2ccccn2)nc2c(-c3ccc(C4CCC4)cc3)csc12` [drawing 1741] came in with an inhibition at 30 µM of 76 to 100%.

Turning to `O=C(CC1CCCC1)NCC(=O)Nc1nnc(-c2ccccn2)[nH]1` [drawing 1415], the inhibition at 30 µM is 1 to 25%.

`O=C(c1csc2c(O)nc(-c3ccccn3)nc12)N1CCN(Cc2ccc(O)c(Cl)c2)CC1` [drawing 1658] came in with an inhibition at 30 µM of 76 to 100%.

Regarding `Oc1nc(-c2ccccn2)nc2c(-c3ccccc3C(F)F)csc12` [drawing 1759], the inhibition at 30 µM fell in the range of 76 to 100%.

Molecule `Oc1nc(-c2ccccn2)nc2c(-c3cccc4c3OCO4)csc12` [drawing 1725] returned an inhibition at 30 µM of 76 to 100%.

Molecule `Cc1nnc(C(Nc2nc(-c3ccccn3)nc3scc(-c4ccccc4)c23)c2ccccc2)n1C` (stereo not drawn) [drawing 1596] returned an inhibition at 30 µM of 76 to 100%.
